12 compounds from patent publication US10481149B2 can be followed below.

For data set [1], the target named is T1, BSEP (Rattus norvegicus, UniProt O70127).
T1 sequence (O70127 1-1321): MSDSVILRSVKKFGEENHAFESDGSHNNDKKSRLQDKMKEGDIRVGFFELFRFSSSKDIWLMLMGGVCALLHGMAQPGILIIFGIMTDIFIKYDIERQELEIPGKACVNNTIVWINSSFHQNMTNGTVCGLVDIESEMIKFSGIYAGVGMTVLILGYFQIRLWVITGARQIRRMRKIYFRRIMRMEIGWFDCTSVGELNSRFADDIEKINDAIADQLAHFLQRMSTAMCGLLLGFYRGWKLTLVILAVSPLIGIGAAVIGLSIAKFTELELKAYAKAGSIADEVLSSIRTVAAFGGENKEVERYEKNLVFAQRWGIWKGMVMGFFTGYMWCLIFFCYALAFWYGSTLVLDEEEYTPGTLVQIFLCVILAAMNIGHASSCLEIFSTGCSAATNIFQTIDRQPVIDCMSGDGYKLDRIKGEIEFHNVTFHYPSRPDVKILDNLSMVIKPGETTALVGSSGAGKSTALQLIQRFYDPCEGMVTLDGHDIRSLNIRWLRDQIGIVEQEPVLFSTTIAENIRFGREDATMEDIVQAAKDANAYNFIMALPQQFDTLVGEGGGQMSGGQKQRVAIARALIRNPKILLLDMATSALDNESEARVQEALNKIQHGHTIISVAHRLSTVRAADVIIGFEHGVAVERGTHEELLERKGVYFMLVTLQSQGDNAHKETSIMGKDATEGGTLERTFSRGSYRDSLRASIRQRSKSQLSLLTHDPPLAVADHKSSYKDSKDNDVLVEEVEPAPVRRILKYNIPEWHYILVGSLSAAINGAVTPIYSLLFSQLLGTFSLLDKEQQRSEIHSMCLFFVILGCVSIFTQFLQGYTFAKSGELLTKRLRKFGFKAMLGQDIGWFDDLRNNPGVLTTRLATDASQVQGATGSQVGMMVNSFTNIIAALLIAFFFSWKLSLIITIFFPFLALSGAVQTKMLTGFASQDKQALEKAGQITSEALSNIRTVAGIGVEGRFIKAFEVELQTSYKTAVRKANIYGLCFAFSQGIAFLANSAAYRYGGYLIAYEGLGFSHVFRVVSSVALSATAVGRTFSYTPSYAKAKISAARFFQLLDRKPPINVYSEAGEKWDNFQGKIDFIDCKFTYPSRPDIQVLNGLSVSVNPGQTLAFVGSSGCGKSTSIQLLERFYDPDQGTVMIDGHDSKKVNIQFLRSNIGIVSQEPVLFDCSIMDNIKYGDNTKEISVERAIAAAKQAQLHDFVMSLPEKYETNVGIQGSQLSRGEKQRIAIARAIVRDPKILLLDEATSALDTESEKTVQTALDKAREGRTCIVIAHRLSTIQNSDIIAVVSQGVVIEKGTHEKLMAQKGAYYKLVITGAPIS
As to the kind of experiment: Inhibition of BSEP activity (transport of glycocholate) in rat hepatocytes.

Data set [2] deals with T2, BSEP (Macaca fascicularis, UniProt D2CFL3). As to the kind of experiment: in vitro. The note with it: monkey, hepatocytes in suspension, probe taurocholate.
T2 sequence (D2CFL3 1-1323): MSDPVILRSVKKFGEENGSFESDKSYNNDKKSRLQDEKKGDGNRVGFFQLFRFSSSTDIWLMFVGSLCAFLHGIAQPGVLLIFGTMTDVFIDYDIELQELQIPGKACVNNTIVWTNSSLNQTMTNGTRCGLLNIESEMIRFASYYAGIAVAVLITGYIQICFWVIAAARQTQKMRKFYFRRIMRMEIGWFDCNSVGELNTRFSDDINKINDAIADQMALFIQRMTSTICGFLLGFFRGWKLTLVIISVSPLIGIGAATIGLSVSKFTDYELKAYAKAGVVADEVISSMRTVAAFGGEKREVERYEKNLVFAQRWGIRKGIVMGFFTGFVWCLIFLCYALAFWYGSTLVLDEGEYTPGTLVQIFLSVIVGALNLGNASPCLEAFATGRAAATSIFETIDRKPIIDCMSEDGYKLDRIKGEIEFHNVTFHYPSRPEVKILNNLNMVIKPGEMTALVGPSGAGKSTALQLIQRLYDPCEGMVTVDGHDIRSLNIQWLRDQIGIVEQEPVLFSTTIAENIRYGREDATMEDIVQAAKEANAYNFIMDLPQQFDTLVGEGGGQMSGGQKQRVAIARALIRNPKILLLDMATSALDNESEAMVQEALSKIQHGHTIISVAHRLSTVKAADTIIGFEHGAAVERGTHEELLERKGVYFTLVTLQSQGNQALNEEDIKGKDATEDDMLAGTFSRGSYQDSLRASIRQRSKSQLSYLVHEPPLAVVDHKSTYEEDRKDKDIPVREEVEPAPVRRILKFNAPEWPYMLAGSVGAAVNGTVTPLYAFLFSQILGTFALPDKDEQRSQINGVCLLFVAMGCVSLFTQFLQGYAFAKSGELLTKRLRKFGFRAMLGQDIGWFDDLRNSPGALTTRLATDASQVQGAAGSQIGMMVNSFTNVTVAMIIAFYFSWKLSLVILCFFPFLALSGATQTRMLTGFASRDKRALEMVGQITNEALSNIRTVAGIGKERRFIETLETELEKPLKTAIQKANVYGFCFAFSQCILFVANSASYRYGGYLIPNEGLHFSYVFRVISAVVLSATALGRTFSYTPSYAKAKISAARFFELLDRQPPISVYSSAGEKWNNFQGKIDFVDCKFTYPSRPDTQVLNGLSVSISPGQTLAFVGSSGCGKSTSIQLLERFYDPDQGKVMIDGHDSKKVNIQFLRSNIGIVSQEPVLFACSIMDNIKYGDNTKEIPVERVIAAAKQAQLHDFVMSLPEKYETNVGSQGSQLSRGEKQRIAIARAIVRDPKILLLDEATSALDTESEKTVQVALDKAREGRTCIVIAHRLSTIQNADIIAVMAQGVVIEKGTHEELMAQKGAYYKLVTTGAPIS
Data set [3] concerns the target T3, BSEP (Mus musculus, UniProt Q9QY30).
T3 sequence (Q9QY30 1-1321): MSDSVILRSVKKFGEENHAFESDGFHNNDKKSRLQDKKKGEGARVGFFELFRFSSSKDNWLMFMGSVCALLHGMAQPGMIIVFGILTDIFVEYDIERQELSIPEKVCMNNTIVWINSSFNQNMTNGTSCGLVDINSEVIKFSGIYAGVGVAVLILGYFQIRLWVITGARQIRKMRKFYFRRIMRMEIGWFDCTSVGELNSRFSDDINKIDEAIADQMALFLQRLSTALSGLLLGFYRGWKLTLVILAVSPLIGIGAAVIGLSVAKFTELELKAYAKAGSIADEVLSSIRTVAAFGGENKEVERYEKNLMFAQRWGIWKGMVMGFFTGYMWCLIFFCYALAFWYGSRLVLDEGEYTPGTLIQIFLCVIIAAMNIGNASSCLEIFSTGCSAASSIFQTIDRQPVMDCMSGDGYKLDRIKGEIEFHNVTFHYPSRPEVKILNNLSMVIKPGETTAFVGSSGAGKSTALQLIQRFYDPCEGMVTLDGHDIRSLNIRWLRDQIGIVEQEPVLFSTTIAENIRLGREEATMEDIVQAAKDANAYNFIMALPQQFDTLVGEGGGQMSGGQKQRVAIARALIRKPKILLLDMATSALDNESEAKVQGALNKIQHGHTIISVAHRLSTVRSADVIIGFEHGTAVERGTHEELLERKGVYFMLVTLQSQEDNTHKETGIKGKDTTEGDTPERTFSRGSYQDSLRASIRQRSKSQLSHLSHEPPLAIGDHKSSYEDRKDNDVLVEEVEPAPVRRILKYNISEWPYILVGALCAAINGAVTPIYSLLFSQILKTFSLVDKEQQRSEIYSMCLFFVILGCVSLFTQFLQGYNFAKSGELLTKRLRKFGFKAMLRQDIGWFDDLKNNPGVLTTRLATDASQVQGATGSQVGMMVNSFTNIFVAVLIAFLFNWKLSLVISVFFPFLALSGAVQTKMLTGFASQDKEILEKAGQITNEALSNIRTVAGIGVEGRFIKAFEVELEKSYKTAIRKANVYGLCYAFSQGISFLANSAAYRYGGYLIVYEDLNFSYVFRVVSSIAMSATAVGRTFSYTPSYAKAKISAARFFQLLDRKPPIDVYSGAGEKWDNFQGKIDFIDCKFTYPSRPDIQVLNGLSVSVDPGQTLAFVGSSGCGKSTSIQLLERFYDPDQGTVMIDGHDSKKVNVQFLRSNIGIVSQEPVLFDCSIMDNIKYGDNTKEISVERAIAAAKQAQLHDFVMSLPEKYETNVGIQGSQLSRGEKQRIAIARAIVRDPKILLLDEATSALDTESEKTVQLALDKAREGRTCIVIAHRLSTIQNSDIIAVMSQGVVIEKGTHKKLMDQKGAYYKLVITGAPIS
The experiment in a line: IC50 for inhibition of BSEP activity in mouse hepatocytes. In kind it is cell-based. Here is the method:
(§1) Kinetic parameters were calculated using standard Michaelis-Menten kinetics. IC50 values were determined using Prism software (La Jolla, Calif.) or median-effect equation. [Chou et al., Theoretical basis, experimental design, and computerized simulation of synergism and antagonism in Drug Combination Studies. Pharmacological Reviews 58, 621, 2006]

Data set [4] concerns the target T1, BSEP. As to the kind of experiment: IC50 for inhibition of BSEP activity in rat hepatocytes. In kind it is cell-based. Here is the method: as §1
For data set [5], the target named is T2, BSEP. The experiment in a line: IC50 for inhibition of BSEP activity in monkey hepatocytes. In kind it is cell-based. The note with it: hepatocytes in suspension. Here is the method: as §1
Where [6] appears, read: hepatocytes in suspension, probe glycocholate.

By inhibition is commonly meant the relative decrease from the control value, in per cent. One may read the pIC50 as −log10 of the IC50, conventionally taken in molar units. A word on the IC50: it is the point on the concentration scale where inhibition reaches its midpoint.

Structures are written as SMILES. pIC50: −log10 of the molar value. Read-outs that look alike come from different tables or passages of the source.

Turning to `COC(=O)N[C@H](C(=O)N[C@@H](Cc1ccccc1)[C@@H](O)CN(Cc1ccc(-c2ccccn2)cc1)NC(=O)[C@@H](NC(=O)OC)C(C)(C)C)C(C)(C)C` [Atazanavir, atazanavir], the inhibition at 1 h, 1 μM was above 50% against BSEP [1] (setting [6]) and below 50% against BSEP [2]. Besides, the inhibition at 1 h, 10 μM at BSEP [1] (setting [6]) and against BSEP [2] was above 50% each time.

With `C[C@@H](Oc1cc(-c2cnn(C3CCNCC3)c2)cnc1N)c1c(Cl)ccc(F)c1Cl` [Crizotinib, crizotinib], the inhibition at 1 h, 1 μM on BSEP [1] (setting [6]) and against BSEP [2] was below 50% in each case. Also, the inhibition at 1 h, 10 μM against BSEP [1] (setting [6]) is above 50%; against BSEP [2], below 50%.

For `OC(Cn1cncn1)(Cn1cncn1)c1ccc(F)cc1F` [Fluconazole, fluconazole], the inhibition at 1 h, 1 μM against BSEP [1] (setting [6]) and on BSEP [2] was below 50% in each case. The inhibition at 1 h, 10 μM against BSEP [1] (setting [6]) and on BSEP [2] was below 50% throughout.

As to `CC(=O)N1CCN(c2ccc(OCC3COC(Cn4ccnc4)(c4ccc(Cl)cc4Cl)O3)cc2)CC1` (centres unmarked) [Ketoconazole, ketoconazole], the inhibition at 1 h, 1 μM at BSEP [1] (setting [6]) and against BSEP [2] was below 50% in each case. Moreover, the inhibition at 1 h, 10 μM against BSEP [1] (setting [6]) and on BSEP [2] was above 50% in each case. The pIC50 at BSEP [3] and at BSEP [4] was below 5.00 each time. Moreover, the half-inhibitory concentration (IC50) at 1 h at BSEP [5] fell in the range of 1000 to 10000 nM.

As for `Cc1c(O)cccc1C(=O)N[C@@H](CSc1ccccc1)[C@H](O)CN1C[C@H]2CCCC[C@H]2C[C@H]1C(=O)NC(C)(C)C` [Nelfinavir, nelfinavir], on BSEP [1] (setting [6]), the inhibition at 1 h, 1 μM was below 50% and the inhibition at 1 h, 10 μM is above 50%. At BSEP [2], the inhibition at 1 h, 1 μM is below 50% and the inhibition at 1 h, 10 μM is above 50%.

Consider `CC(C)NCC(O)COc1cccc2ccccc12` (centres unmarked) [Propranolol, propranolol], for which the inhibition at 1 h, 1 μM at BSEP [1] (setting [6]) and on BSEP [2] was below 50% in each case. In addition, the inhibition at 1 h, 10 μM against BSEP [1] (setting [6]) and against BSEP [2] was below 50% throughout.

On BSEP [1] (setting [6]), `O=c1c(O)c(-c2ccc(O)c(O)c2)oc2cc(O)cc(O)c12` [Quercetin, quercetin] yielded an inhibition at 1 h, 1 μM below 50% and an inhibition at 1 h, 10 μM below 50%. At BSEP [2], this compound yielded an inhibition at 1 h, 1 μM below 50% and an inhibition at 1 h, 10 μM below 50%.

`C=C[C@H]1C[N@@]2CC[C@H]1C[C@@H]2[C@@H](O)c1ccnc2ccc(OC)cc12` [Quinidine, quinidine]: at BSEP [1] (setting [6]), the inhibition at 1 h, 1 μM was below 50% and the inhibition at 1 h, 10 μM was below 50%. Further, at BSEP [2], the inhibition at 1 h, 1 μM is below 50% and the inhibition at 1 h, 10 μM is below 50%.

`CO[C@H]1/C=C/O[C@@]2(C)Oc3c(C)c(O)c4c(O)c(c(/C=N/N5CCN(C)CC5)c(O)c4c3C2=O)NC(=O)/C(C)=C\C=C\[C@H](C)[C@H](O)[C@@H](C)[C@@H](O)[C@@H](C)[C@H](OC(C)=O)[C@@H]1C` [Rifampicin]: the pIC50 is below 5.00 at BSEP [3] and 5.00 to 6.00 on BSEP [4]. Further, the IC50 at 1 h on BSEP [5] was below 1000 nM.

For the compound `S=P(N1CC1)(N1CC1)N1CC1` [Thiotepa, thiotepa], the inhibition at 1 h, 1 μM at BSEP [1] and on BSEP [2] was below 50% each time. The inhibition at 1 h, 10 μM at BSEP [1] and against BSEP [2] was below 50% each time.

`Cc1c(C)c2c(c(C)c1O)CCC(C)(COc1ccc(CC3SC(=O)NC3=O)cc1)O2` (centres unmarked) [Troglitazone, troglitazone]: the values for the inhibition at 1 h, 1 μM on BSEP [1] (setting [6]) and on BSEP [2] were above 50% and below 50%, respectively. Moreover, the inhibition at 1 h, 10 μM on BSEP [1] (setting [6]) and at BSEP [2] was above 50% each time. For the same compound, the pIC50 at BSEP [3] is below 5.00; on BSEP [4], 5.00 to 6.00. The IC50 at 1 h on BSEP [5] is 1000 to 10000 nM.

Consider `CC[C@]1(O)C[C@@H]2CN(CCc3c([nH]c4ccccc34)[C@@](C(=O)OC)(c3cc4c(cc3OC)N(C)[C@H]3[C@@](O)(C(=O)OC)[C@H](OC(C)=O)[C@]5(CC)C=CCN6CC[C@]43[C@@H]65)C2)C1` [Vinblastine, vinblastine], for which, at BSEP [1] (setting [6]), the inhibition at 1 h, 1 μM was below 50% and the inhibition at 1 h, 10 μM was above 50%. In addition, at BSEP [2], the inhibition at 1 h, 1 μM is below 50% and the inhibition at 1 h, 10 μM was below 50%.
